The record followed here is US9771341B2, “Piperazine carbamates and methods of making and using same” (Abide Therapeutics, Inc., priority 2015, dated 2017).

Assay type in all cases: biochemical
The target in one test is T1, MAGL (Mus musculus, UniProt O35678).
T1 construct: Proteomes (mouse brain membrane fraction or cell lysates); from tissue; host or cells: mouse brain membrane fraction (or unspecified cell lysates)
T1 sequence (O35678 1-303): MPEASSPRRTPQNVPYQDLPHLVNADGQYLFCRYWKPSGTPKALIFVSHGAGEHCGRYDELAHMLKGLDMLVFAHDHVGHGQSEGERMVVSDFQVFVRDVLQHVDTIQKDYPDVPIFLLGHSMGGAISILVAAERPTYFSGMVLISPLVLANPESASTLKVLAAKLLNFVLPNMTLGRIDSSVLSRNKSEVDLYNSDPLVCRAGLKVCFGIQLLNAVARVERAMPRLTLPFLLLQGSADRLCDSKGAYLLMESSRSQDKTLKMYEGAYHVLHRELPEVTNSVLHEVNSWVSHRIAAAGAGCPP
Briefly: In vitro competitive activity-based protein profiling (mouse), MAGL. Particulars: for inhibition at 1 µM: mouse proteome, in vitro, read-out: % Inhibition at 1 μM MAGL; for IC50: mouse brain membrane fraction or cell lysates, 30 min preincubation at 37° C, FP-Rh probe. The protocol:
(§1) In Vitro Competitive Activity-Based Protein Profiling (Mouse).
(§2) Proteomes (mouse brain membrane fraction or cell lysates) (50 μL, 1.0 mg/mL total protein concentration) were preincubated with varying concentrations of inhibitors at 37° C. After 30 min, FP-Rh (1.0 μL, 50 μM in DMSO) was added and the mixture was incubated for another 30 min at 37° C. Reactions were quenched with SDS loading buffer (50 μL-4×) and run on SDS-PAGE.

The target of the next test is T2, FAAH (Mus musculus, UniProt O08914).
T2 construct: Proteomes (mouse brain membrane fraction or cell lysates); from tissue; host or cells: mouse brain membrane fraction (or unspecified cell lysates)
T2 sequence (O08914 1-579): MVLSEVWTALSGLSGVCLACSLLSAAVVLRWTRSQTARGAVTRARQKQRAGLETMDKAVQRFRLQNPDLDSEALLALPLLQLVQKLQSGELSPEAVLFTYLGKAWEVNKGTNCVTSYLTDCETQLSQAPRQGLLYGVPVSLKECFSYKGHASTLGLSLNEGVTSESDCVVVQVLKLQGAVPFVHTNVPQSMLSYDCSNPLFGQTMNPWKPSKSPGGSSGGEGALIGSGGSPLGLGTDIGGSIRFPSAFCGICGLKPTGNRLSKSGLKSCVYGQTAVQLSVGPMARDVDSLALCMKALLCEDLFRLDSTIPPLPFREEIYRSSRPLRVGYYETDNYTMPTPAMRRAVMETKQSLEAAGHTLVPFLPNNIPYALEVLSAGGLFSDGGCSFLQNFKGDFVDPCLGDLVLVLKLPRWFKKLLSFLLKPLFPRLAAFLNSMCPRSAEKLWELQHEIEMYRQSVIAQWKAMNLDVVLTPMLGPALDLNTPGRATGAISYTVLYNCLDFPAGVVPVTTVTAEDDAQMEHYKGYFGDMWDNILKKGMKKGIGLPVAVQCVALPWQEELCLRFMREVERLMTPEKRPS
In words: In vitro competitive activity-based protein profiling (mouse), FAAH. The following applies: for inhibition at 1 µM: mouse proteome, in vitro; for IC50: mouse brain membrane fraction or cell lysates, 30 min preincubation at 37° C, FP-Rh probe. In short, it runs like this: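 Mouse brain membrane fraction or cell lysates (1.0 mg/mL protein) preincubated with inhibitors 30 min at 37° C, then FP-Rh probe 30 min at 37° C. SDS-PAGE fluorescence band intensity gave FAAH activity.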

In another test the target is T3, ABHD6 (Mus musculus, UniProt Q8R2Y0).
T3 construct: Proteomes (mouse brain membrane fraction or cell lysates); from tissue; host or cells: mouse brain membrane fraction (or unspecified cell lysates)
T3 sequence (Q8R2Y0 1-336): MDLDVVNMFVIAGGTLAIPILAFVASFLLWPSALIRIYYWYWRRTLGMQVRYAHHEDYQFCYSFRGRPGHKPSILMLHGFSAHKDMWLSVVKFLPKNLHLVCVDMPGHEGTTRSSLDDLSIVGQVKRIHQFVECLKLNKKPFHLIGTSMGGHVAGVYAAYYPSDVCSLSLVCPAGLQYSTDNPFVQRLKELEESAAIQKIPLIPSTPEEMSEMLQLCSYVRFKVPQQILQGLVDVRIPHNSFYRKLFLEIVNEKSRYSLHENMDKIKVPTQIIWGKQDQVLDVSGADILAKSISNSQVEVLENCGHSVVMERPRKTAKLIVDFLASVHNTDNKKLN
Briefly: In vitro competitive activity-based protein profiling (mouse), ABHD6. Particulars: for inhibition at 1 µM: mouse proteome, in vitro, read-out: % Inhibition at 1 μM ABHD6; for IC50: mouse brain membrane fraction or cell lysates, 30 min preincubation at 37° C, FP-Rh probe. The protocol: as §1, §2

As a reminder, the inhibition is the percentage by which the read-out fell short of the control. As a reminder, the IC50 is the point on the concentration scale where inhibition reaches its midpoint. Read a low IC50 as greater potency in that assay.

For `O=C(OC(C(F)(F)F)C(F)(F)F)N1CCN(Cc2ccc(C(F)(F)F)c(N3CCC(CO)CC3)c2)CC1` [Example 82, 1,1,1,3,3,3-hexafluoropropan-2-yl 4-(3-(4-(hydroxymethyl)piperidin-1-yl)-4-(trifluoromethyl)benzyl)piperazine-1-carboxylate], the inhibition at 1 µM was over 75% at MAGL, under 25% at FAAH and over 75% on ABHD6. Also, the IC50 at MAGL was under 100 nM; on FAAH, over 1000 nM; on ABHD6, 100 to 1000 nM.
In the case of `O=C(O)C1CN(c2cc(CN3CCN(C(=O)OC(C(F)(F)F)C(F)(F)F)CC3)ccc2C(F)(F)F)CCO1` (stereo not drawn) [Example 83, 4-(5-((4-(((1,1,1,3,3,3-hexafluoropropan-2-yl)oxy)carbonyl)piperazin-1-yl)methyl)-2-(trifluoromethyl)phenyl)morpholine-2-carboxylic acid], the results for the inhibition at 1 µM on MAGL, on FAAH and on ABHD6 were over 75%, under 25% and under 25%, respectively. Besides, the figures for the IC50 on MAGL, on FAAH and on ABHD6 were under 100 nM, over 1000 nM and 100 to 1000 nM, respectively.
Regarding `O=C(O)C(=O)c1cc(CN2CCN(C(=O)OC(C(F)(F)F)C(F)(F)F)CC2)ccc1C(F)(F)F` [Example 84, 2-(5-((4-(((1,1,1,3,3,3-hexafluoropropan-2-yl)oxy)carbonyl)piperazin-1-yl)methyl)-2-(trifluoromethyl)phenyl)-2-oxoacetic acid], the inhibition at 1 µM at MAGL was over 75%; at FAAH it was under 25%; at ABHD6 it was over 75%. The results for the IC50 at MAGL, on FAAH and on ABHD6 were under 100 nM, over 1000 nM and under 100 nM, respectively.
Take `O=C(O)C1CCN(c2cc(CN3CCN(C(=O)OC(C(F)(F)F)C(F)(F)F)CC3)ccc2C(F)(F)F)CC1` [Example 85, 1-(5-((4-(((1,1,1,3,3,3-hexafluoropropan-2-yl)oxy)carbonyl)piperazin-1-yl)methyl)-2-(trifluoromethyl)phenyl)piperidine-4-carboxylic acid]: the inhibition at 1 µM at MAGL is 25 to 75%; at FAAH, under 25%; on ABHD6, over 75%. Moreover, the IC50 at MAGL is 100 to 1000 nM; at FAAH, over 1000 nM; at ABHD6, 100 to 1000 nM.
`CCOC(=O)C1CCCN1c1cc(CN2CCN(C(=O)OC(C(F)(F)F)C(F)(F)F)CC2)cc(C(F)(F)F)c1` (stereo not drawn) [Example 87, 1,1,1,3,3,3-hexafluoropropan-2-yl 4-(3-(2-(ethoxycarbonyl)pyrrolidin-1-yl)-5-(trifluoromethyl)benzyl)piperazine-1-carboxylate]: the inhibition at 1 µM on MAGL was over 75%; on FAAH, under 25%; on ABHD6, over 75%. The IC50 was under 100 nM at MAGL, over 1000 nM at FAAH and 100 to 1000 nM at ABHD6.
In the case of `O=C(OC(C(F)(F)F)C(F)(F)F)N1CCN(Cc2cc(N3CCCC3CO)cc(C(F)(F)F)c2)CC1` (stereo not drawn) [Example 88, 1,1,1,3,3,3-hexafluoropropan-2-yl 4-(3-(2-(hydroxymethyl)pyrrolidin-1-yl)-5-(trifluoromethyl)benzyl)piperazine-1-carboxylate], the results for the inhibition at 1 µM at MAGL, at FAAH and at ABHD6 were over 75%, under 25% and 25 to 75%, respectively. For the same compound, the IC50 on MAGL was 100 to 1000 nM; on FAAH it was over 1000 nM; at ABHD6, 100 to 1000 nM.
For `O=C(O)C1CCN(c2cc(CN3CCN(C(=O)OC(C(F)(F)F)C(F)(F)F)CC3)cc(C(F)(F)F)c2)C1` (stereo not drawn) [Example 89, 1-(3-((4-(((1,1,1,3,3,3-hexafluoropropan-2-yl)oxy)carbonyl)piperazin-1-yl)methyl)-5-(trifluoromethyl)phenyl)pyrrolidine-3-carboxylic acid], the inhibition at 1 µM at MAGL is over 75%; at FAAH, under 25%; on ABHD6, over 75%. The IC50 is 100 to 1000 nM at MAGL, over 1000 nM on FAAH and under 100 nM on ABHD6.
With `O=C(OC(C(F)(F)F)C(F)(F)F)N1CCN(Cc2cc(N3CCC(CO)C3)cc(C(F)(F)F)c2)CC1` (stereo not drawn) [Example 90, 1,1,1,3,3,3-hexafluoropropan-2-yl 4-(3-(3-(hydroxymethyl)pyrrolidin-1-yl)-5-(trifluoromethyl)benzyl)piperazine-1-carboxylate], the inhibition at 1 µM was over 75% at MAGL, under 25% on FAAH and over 75% on ABHD6. The values for the concentration for half-maximal inhibition (IC50) on MAGL, at FAAH and on ABHD6 were under 100 nM, over 1000 nM and 100 to 1000 nM, respectively.
For `O=C(OC(C(F)(F)F)C(F)(F)F)N1CCN(Cc2cc(N3CCC(CO)CC3)cc(C(F)(F)F)c2)CC1` [Example 91, 1,1,1,3,3,3-hexafluoropropan-2-yl 4-(3-(4-(hydroxymethyl)piperidin-1-yl)-5-(trifluoromethyl)benzyl)piperazine-1-carboxylate], the inhibition at 1 µM on MAGL was over 75%; on FAAH it was under 25%; on ABHD6, over 75%. Moreover, the figures for the IC50 at MAGL, on FAAH and at ABHD6 were 100 to 1000 nM, over 1000 nM and 100 to 1000 nM, respectively.
As to `O=C(O)C1CN(c2cc(CN3CCN(C(=O)OC(C(F)(F)F)C(F)(F)F)CC3)cc(C(F)(F)F)c2)CCO1` (stereo not drawn) [Example 92, 4-(3-((4-(((1,1,1,3,3,3-hexafluoropropan-2-yl)oxy)carbonyl)piperazin-1-yl)methyl)-5-(trifluoromethyl)phenyl)morpholine-2-carboxylic acid], the inhibition at 1 µM on MAGL is over 75%; at FAAH, under 25%; on ABHD6 it was under 25%. For the same compound, the IC50 on MAGL is under 100 nM; on FAAH, over 1000 nM; on ABHD6, over 1000 nM.
Consider `O=C(O)C(=O)c1cc(CN2CCN(C(=O)OC(C(F)(F)F)C(F)(F)F)CC2)cc(C(F)(F)F)c1` [Example 93, 2-(3-((4-(((1,1,1,3,3,3-hexafluoropropan-2-yl)oxy)carbonyl)piperazin-1-yl)methyl)-5-(trifluoromethyl)phenyl)-2-oxoacetic acid], for which the inhibition at 1 µM is over 75% at MAGL, under 25% at FAAH and over 75% on ABHD6. In addition, the IC50 was under 100 nM on MAGL, over 1000 nM at FAAH and 100 to 1000 nM at ABHD6.
As to `O=C(O)C1CCN(c2cc(CN3CCN(C(=O)OC(C(F)(F)F)C(F)(F)F)CC3)cc(C(F)(F)F)c2)CC1` [Example 94, 1-(3-((4-(((1,1,1,3,3,3-hexafluoropropan-2-yl)oxy)carbonyl)piperazin-1-yl)methyl)-5-(trifluoromethyl)phenyl)piperidine-4-carboxylic acid], the inhibition at 1 µM on MAGL is 25 to 75%; on FAAH it was under 25%; at ABHD6 it was over 75%. The figures for the IC50 on MAGL, on FAAH and at ABHD6 were 100 to 1000 nM, over 1000 nM and under 100 nM, respectively.
